Assay results published in patent US20110064662A1, “KIT FOR PRODUCING MOLECULAR PROBE FOR PET SCREENING FOR DRUG DISCOVERY” (RIKEN, priority 2007, published 2011).

Assays:
[1] = PET analysis of the brain of the monkey after intravenous injection of labeled compound; format: in vivo; conditions: for stability against metabolism: concluded from monkey brain PET images; for initial brain uptake for 10 minutes after administration / elimination from the brain: monkey; for initial brain uptake for 10 minutes after administration: i.v. about 900 MBq, PET of brain, compared with conventional labeled compound
Description: The N-(2,5-dimethoxybenzyl)-N-[5-fluoro(4-[^11-C]methylphenoxy)-phenyl]acetamide ([^11C]-9) (^11C-labeled compound) produced in Example 9 was diluted with a mixed solution of physiological saline (3.6 ml), propylene glycol (0.3 ml), ethanol (0.1 ml), and a Tween 80 surfactant (0.1 ml), a radioactivity of about 900 MBq was introduced into a monkey through an intravenous injection, and a PET analysis of the brain of the monkey was performed using an animal PET scanner SHR-7700 manufactured by Hamamatsu Photonics K.K. ([^11C]-20).
[^11C]DAA1106 represented by the formula below was administered into a monkey in the same manner as in Example 10 except that [^11C]DAA1106 was used in place of the N-(2,5-dimethoxybenzyl)-N-[5-fluoro(4-[^11C]methylphenoxy)phenyl]acetamide ([^11C]-9) (labeled compound) produced in Example 9. The time radioactivity curves thereof are shown also in FIG. 3. […] [^11C]DAA1106 was separately produced according to WO 99/06353.
The 1-(2-chloro-5-methylphenyl)-N-methyl-(1-methylpropyl)-3-isoquinolinecarboxamide ([^11C]-20) (^11C-labeled compound) produced in Example 11 was diluted with a mixed solution of physiological saline (3.6 ml), propylene glycol (0.3 ml), ethanol (0.1 ml), and a Tween 80 surfactant (0.1 ml), a radioactivity of about 900 MBq was introduced into a monkey through an intravenous injection, and a PET analysis of [^11C]-20 in the brain of the monkey was performed using an animal PET scanner SHR-7700 manufactured by Hamamatsu Photonics K.K. The results are shown in FIG. 2.
[^11C]PK11195 represented by the formula below was administered into a monkey in the same manner as in Example 12 except that [^11C]PK11195 was used in place of the 1-(2-chloro-5-methylphenyl)-N-methyl-(1-methylpropyl)-3-isoquinolinecarbox amide ([^11C]-20) (labeled compound) produced in Example 11. […] [^11C]PK11195 was separately produced according to R. Camsonne et al., Journal of Labeled Compounds and Radiopharmaceuticals, 1984, 11, pp. 985-991.
The 10-O-p-[^11C]methylbenzylginkgolide B ([^11C]-29) (^11C-labeled compound) produced in Example 16 was diluted with a mixed solution of physiological saline (1.8 ml), propylene glycol (0.15 ml), ethanol (0.05 ml), a Tween 80 surfactant (0.05 ml), and intralipos (2.05 ml), a radioactivity of about 900 MBq was introduced into a monkey through an intravenous injection, and a PET analysis of [^11C]-29 in the brain of the monkey was performed using an animal PET scanner SHR-7700 manufactured by Hamamatsu Photonics K.K. The results are shown in FIG. 8.
[^18F]-30 represented by the formula below was administered into a monkey in the same manner as in Example 17 except that [^18F]-30 was used in place of the 10-O-p-[^11C]-methylbenzylginkgolide B ([^11C]-29) (^11C-labeled compound) produced in Example 16. […] [^18F]-30 was separately produced according to Makiko Suehiro, et al., J. Labelled Compd. Radiopharm., 47, pp. 485-491, 2004.

P-glycoprotein = experiment: Experiment for determining P-glycoprotein substrates (brain radioactivity in rats with or without cyclosporin A pre-administration); format: in vivo; conditions: for amount of tracer present in the brain upon pre-administration of CsA: CsA in different doses 30 min before tracer, brain removed 30 min after tracer
Description: P-glycoprotein inhibitor cyclosporin A (CsA) was administered into rats 30 minutes prior to the administration of tracers. Thirty minutes after the administration of tracers, the rats were decapitated to remove the brains and measure the radioactivity. […] An SUV value in the present experiment is the average of the results obtained from 4 rats and expressed using a standard deviation.

[2] = Proportion of brain SUV to blood SUV in rats, with and without brain blood perfusion; format: in vivo; conditions: for uptake by the parenchyma of the brain: concluded from pre- and post-perfusion data; for amount of tracer after the brain blood perfusion: physiological saline perfused via the heart before decapitation
Description: As in Example 18, P-glycoprotein inhibitor cyclosporin A (CsA) was administered into rats in an amount of 25 mg/kg body weight of a rat 30 minutes prior to the administration of tracers. Thirty minutes after the administration of tracers, the rats were decapitated to remove the brains and measure the radioactivity. The figures show the results obtained from control rats into which no CsA was administered and from those into which CsA was administered in an amount of 25 mg/kg, expressed as a proportion of the brain SUV to the blood SUV. The SUV value in the present experiment is the average of the results obtained from two rats and expressed using a standard deviation. 10-O-p-[^11C]methylbenzylginkgolide B ([^11C]-29) (^11C-labeled compound) produced in Example 16 and [^18F]-30 were used as the tracers. […] FIG. 11 is from the measurement of radioactivity in the brain removed after decapitation, and FIG. 12 is from the measurement of radioactivity performed after flushing the blood out of the brain by infusing/perfusing physiological saline into the heart of a rat before decapitation.

PAF receptor = PAF receptor (Homo sapiens, UniProt P25105); conditions: more strongly than natural ginkgolide B; cited from earlier work
Chain of PAF receptor (P25105 whole entry): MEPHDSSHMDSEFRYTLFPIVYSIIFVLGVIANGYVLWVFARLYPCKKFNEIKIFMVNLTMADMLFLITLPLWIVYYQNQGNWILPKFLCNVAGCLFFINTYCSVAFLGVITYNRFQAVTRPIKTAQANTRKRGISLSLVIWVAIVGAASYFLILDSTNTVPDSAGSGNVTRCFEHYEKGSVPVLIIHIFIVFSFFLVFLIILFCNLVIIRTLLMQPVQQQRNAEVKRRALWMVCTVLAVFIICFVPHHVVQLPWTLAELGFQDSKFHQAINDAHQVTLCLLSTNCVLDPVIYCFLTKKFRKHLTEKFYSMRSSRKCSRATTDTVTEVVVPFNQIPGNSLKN

[3] = time radioactivity curves after i.v. administration

Row | stability against metabolism [1] | initial brain uptake for 10 minutes after administration [1] | Compound | elimination from the brain [1, 3] | brain uptake ([1]; monkey brain PET) | other results
1 | stable against metabolism | increased initial brain uptake | 10-O-p-[^11C]methylbenzylginkgolide B [[^11C]-29] | promptly eliminated from the brain with time | – | amount of tracer present in the brain upon pre-administration of CsA (P-glycoprotein): changed in a volume-dependent manner; SUV values relative to those of [^11C]verapamil (P-glycoprotein; brain SUV, [^11C]verapamil as standard reference): about 30%; uptake by the parenchyma of the brain [2]: taken up by the parenchyma of the brain; amount of tracer after the brain blood perfusion ([2]; control and CsA 25 mg/kg): did not change
2 | stable against metabolism | greater initial brain uptake | COc1ccc(OC)c(CN(C(C)=O)c2cc(F)ccc2Oc2ccc([11CH3])cc2)c1 [[^11C]-9, N-(2,5-dimethoxybenzyl)-N-[5-fluoro-(4[^11C]methylphenoxy)phenyl]acetamide] | – | greater than that of the conventional labeled compound | –
3 | stable against metabolism | greater initial brain uptake | CCC(C)N(C)C(=O)c1cc2ccccc2c(-c2cc([11CH3])ccc2Cl)n1 (centres unmarked) [[^11C]-20, 1-(2-chloro-5-[^11C]methylphenyl)-N-methyl-(1-methylpropyl)-3-isoquinolinecarboxamide] | promptly eliminated from the brain with time | greater than that of the conventional labeled compound | –
4 | – | – | COc1ccc(O[11CH3])c(CN(C(C)=O)c2cc(F)ccc2Oc2ccccc2)c1 [[^11C]DAA1106, reference compound] | – | – | elimination from the brain ([1]; in vivo, iv): barely eliminated from the brain
5 | – | – | CCC(C)N([11CH3])C(=O)c1cc2ccccc2c(-c2ccccc2Cl)n1 (centres unmarked) [[^11C]PK11195, reference compound] | barely eliminated from the brain | – | –
6 | – | – | C[C@@H]1C(=O)O[C@H]2[C@H](O)C34C5OC(=O)[C@@]3(OC3OC(=O)C(O)C34[C@H](C(C)(C)C)[C@@H]5[18F])[C@@]12O (some centres unmarked) [[^18F]-30, reference compound] | – | barely taken up by the brain | blood-brain barrier penetration ([1]; monkey brain PET): little blood-brain barrier penetration; amount of tracer present in the brain upon pre-administration of CsA (P-glycoprotein): did not change; proportion of the brain SUV to the blood SUV ([2]; 30 min after tracer, control and CsA 25 mg/kg): ≤ 0.04; uptake by the parenchyma of the brain [2]: not taken up by the parenchyma of the brain; amount of tracer after the brain blood perfusion ([2]; control and CsA 25 mg/kg): washed away by the brain blood perfusion
7 | – | – | Cc1ccc(COC2C(=O)OC3O[C@@]45C(=O)OC6C[C@@H](C(C)(C)C)C32C64[C@@H](O)[C@@H]2OC(=O)[C@@H](C)[C@@]25O)cc1 (some centres unmarked) [compound 29, 10-O-p-methylbenzylginkgolide B] | – | – | binding with a PAF receptor relative to natural ginkgolide B (PAF receptor): 10 times
